In US20150202186A1, “CYSTATHIONINE-(gamma)-LYASE (CSE) INHIBITORS FOR TREATING PAIN” (SOVA PHARMACEUTICALS, INC., priority 2014, published 2015):

Target: recombinant CSE (cystathionine-γ-lyase) (UniProt P32929)
Experiment: CSE In Vitro Assay

Compound	IC50 [µM]
CCN(N)c1nnn[nH]1 [Compound 13]	< 25
COCCN(N)c1nnn[nH]1 [Compound 15]	25 to 100
CN(N)c1nnn(C)n1 [Compound 38]	> 100
